Assays:
MDA-MB 231 = experiment: Annexin V-FITC/PI staining, flow cytometry; format: cell-based, human
Description: (§1) To discern whether cell death triggered by OOPs treatment occurred via apoptosis or necrosis under the experimental conditions applied in this study, live cells treated with OOPs were stained simultaneously with FITC-conjugated annexin V and propidium iodide (PI). Annexin V binds to phosphatidylserine (PS) translocating from the inner to the outer leaflet of the plasma membrane in apoptotic cells. Therefore, annexin V-FITC binding to PS labels live apoptotic cells with green FL. […] PS exposure to the extracellular space and cell membrane permeability were analyzed by flow cytometry as described in detail in the Experimental Section. […] OOP concentrations used were equal to the EC50 values for each cell line (Table 1). annexin V and PI staining discriminated between early- (i.e., annexin V +ve and PI −ve) and late-apoptotic cells (i.e., annexin V +ve and PI +ve), as well as between necrotic (i.e., annexin V −ve and PI +ve) and live (i.e., annexin V −ve and PI −ve) cells (Table 4).
(§2) Apoptosis and necrosis were assessed by double staining with annexin V-FITC and propidium iodide (PI) and were analyzed using flow cytometry (FACS). Human cancer cells were plated in 96-well culture plates in 100 μL of complete medium and were allowed to adhere overnight (~16 h). […] In detail, 0.5 μL of a 500× stock of each tested compound in DMSO was added directly into each well in a final volume of 250 μL culture medium and was gently mixed by pipetting. Control wells were prepared under the same experimental conditions by adding only DMSO at a final concentration of 0.2% (v/v). At the end of the treatment, the cells were detached by trypsinization, media with serum was added to deactivate trypsin, and the cells from three wells were pooled together by centrifugation (1000 rpm, 5 min, 24 °C), washed with cold PBS, centrifuged (1000 rpm, 5 min, 24 °C) and finally resuspended in cold 1× annexin V binding buffer (10 mM HEPES pH = 7.4, 150 mM NaCl, 2.5 mM CaCl2) at a density of 10^4 cells/mL. Staining was performed by incubating with annexin V- FITC and propidium iodide (PI; BioLegend) for 15 min at room temperature in the dark, according to the manufacturer’s instructions. […] Cells treated with Triton X-100 (0.25% (v/v)) for 5 min at 4 °C were used as controls for 100% permeabilization of the plasma membrane and maximum fluorescence staining with PI (positive control for cells in necrosis). The presence of live, apoptotic or necrotic cells was assessed with the FACS Calibur (Becton–Dickinson, San Jose, CA, USA). In total, 10,000 cells were analyzed per measurement and the acquired data were analyzed using the FlowJo V.10.0.8 software (Tree Star Inc., Ashland, OR, USA). Each condition was analyzed in duplicate, and the results presented are from 2 or 3 independent experiments.
(§3) Data showing OOPs’ apoptotic/necrotic effect were derived from two or three independent experiments and were presented as the means ± SE of the percentage (%) of both annexin V-positive cells (early apoptotic events) and % of annexin V/PI positive cells (late apoptotic events) over the whole cell population normalized to the corresponding events of the control cells, as determined using the FlowJo software.

SK-MEL-28 = experiment: Annexin V-FITC/PI staining, flow cytometry; format: cell-based, human
Description: as §1, §2, §3

COC(=O)C1=COC(C)[C@@H](C=O)[C@@H]1CC(=O)OCCc1ccc(O)c(O)c1 (mixture of isomers) [3a,b, oleuropein aglycone]
% Cell Viability (MDA-MB 231; 48 h at EC50): 69% | Early Apoptotic (% ± S.D.) (MDA-MB 231; 48 h at EC50): 4.17± 0.4% | Late Apoptotic (% ± S.D.) (MDA-MB 231; 48 h at EC50): 3.87 ± 3.7% | Total Apoptotic (%) (MDA-MB 231; 48 h at EC50): 8.04 ± 4.1% | % Cell Viability (SK-MEL-28; 48 h at EC50): 68% | Early Apoptotic (% ± S.D.) (SK-MEL-28; 48 h at EC50): 8.33 ± 1.9% | Late Apoptotic (% ± S.D.) (SK-MEL-28; 48 h at EC50): 4.91 ± 1.7% | Total Apoptotic (%) (SK-MEL-28; 48 h at EC50): 13.24 ± 3.7%

C/C=C(/C=O)[C@@H](CC=O)CC(=O)OCCc1ccc(O)cc1 [compound 1, oleocanthal]
% Cell Viability (MDA-MB 231; 48 h at EC50): 85% | Early Apoptotic (% ± S.D.) (MDA-MB 231; 48 h at EC50): 1.19 ± 0.01% | Late Apoptotic (% ± S.D.) (MDA-MB 231; 48 h at EC50): 1.38 ± 0.1% | Total Apoptotic (%) (MDA-MB 231; 48 h at EC50): 2.56 ± 0.1% | % Cell Viability (SK-MEL-28; 48 h at EC50): 68% | Early Apoptotic (% ± S.D.) (SK-MEL-28; 48 h at EC50): 4.10 ± 0.2% | Late Apoptotic (% ± S.D.) (SK-MEL-28; 48 h at EC50): 2.47 ± 0.7% | Total Apoptotic (%) (SK-MEL-28; 48 h at EC50): 6.57 ± 0.5%

C/C=C(/C=O)[C@@H](CC=O)CC(=O)OCCc1ccc(O)c(O)c1 [compound 2, oleacein]
% Cell Viability (MDA-MB 231; 48 h at EC50): 73% | Early Apoptotic (% ± S.D.) (MDA-MB 231; 48 h at EC50): 1.89 ± 0.03% | Late Apoptotic (% ± S.D.) (MDA-MB 231; 48 h at EC50): 1.49 ± 0.3% | Total Apoptotic (%) (MDA-MB 231; 48 h at EC50): 3.38 ± 0.2% | % Cell Viability (MDA-MB 231; 72 h at EC50): 70% | Early Apoptotic (% ± S.D.) (MDA-MB 231; 72 h at EC50): 3.65 ± 0.5% | Late Apoptotic (% ± S.D.) (MDA-MB 231; 72 h at EC50): 1.64 ± 0.5% | Total Apoptotic (%) (MDA-MB 231; 72 h at EC50): 5.29 ± 1.0% | % Cell Viability (SK-MEL-28; 48 h at EC50): 76% | Early Apoptotic (% ± S.D.) (SK-MEL-28; 48 h at EC50): 5.87 ± 1.1% | Late Apoptotic (% ± S.D.) (SK-MEL-28; 48 h at EC50): No L.A. | Total Apoptotic (%) (SK-MEL-28; 48 h at EC50): 5.87 ± 1.1% | % Cell Viability (SK-MEL-28; 72 h at EC50): 72% | Early Apoptotic (% ± S.D.) (SK-MEL-28; 72 h at EC50): 6.70 ± 1.0% | Late Apoptotic (% ± S.D.) (SK-MEL-28; 72 h at EC50): 1.34 ± 0.3% | Total Apoptotic (%) (SK-MEL-28; 72 h at EC50): 8.04 ± 0.7%

ligstroside aglycone [4a,b]
% Cell Viability (SK-MEL-28; 48 h at EC50): 82% | Early Apoptotic (% ± S.D.) (SK-MEL-28; 48 h at EC50): 1.86 ± 0.8% | Late Apoptotic (% ± S.D.) (SK-MEL-28; 48 h at EC50): No L.A. | Total Apoptotic (%) (SK-MEL-28; 48 h at EC50): 1.86 ± 0.8%

Reference: paper PMC9820430, “New Affordable Methods for Large-Scale Isolation of Major Olive Secoiridoids and Systematic Comparative Study of Their Antiproliferative/Cytotoxic Effect on Multiple Cancer Cell Lines of Different Cancer Origins” (International Journal of Molecular Sciences, 2022)
